Structures can show the parent of a compound that is named as a salt.
Key:
Male ICR mice [1] = assay: Nicotine conditioned place preference; assay type: in vivo, mouse
Male ICR mice [2] = assay: Activity counts in the drug-paired compartment on CPP test day; assay type: in vivo, mouse; details: mean ± S.E.M., n=6-8
[3] = Plasma nicotine and cotinine levels in the CPP test; assay type: in vivo, mouse
Male ICR mice [4] = assay: Mecamylamine-precipitated nicotine withdrawal: somatic signs; assay type: in vivo, mouse; details: methoxsalen 15 mg/kg i.p. 15 min before nicotine 2 mg/kg s.c. three times daily for 4 days; mecamylamine 2 mg/kg s.c. on day 5
Male ICR mice [5] = assay: Mecamylamine-precipitated nicotine withdrawal: elevated plus maze; assay type: in vivo, mouse
human CYP2A6 = details: ref Zhang et al., 2001; Damaj et al., 2007; cited from earlier work
Male ICR mice [6] = assay: Spontaneous nicotine withdrawal and its reversal: hot plate hyperalgesia; assay type: in vivo, mouse; details: chronic nicotine 36 mg/kg/day in minipumps for 7 days, after removing the mini pumps
Male ICR mice [7] = details: chronic nicotine 36 mg/kg/day in minipumps for 7 days, after removing the mini pumps
[8] = CYP2A(4/5) null mouse; ref Wei et al., 2013; cited from earlier work

Row | Compound | Nicotine conditioned place preference (Male ICR mice [1]; methoxsalen 45 mg/kg i.p. 15 min prior to nicotine 0.1 mg/kg s.c.) | Nicotine conditioned place preference (Male ICR mice [1]; methoxsalen 15 and 30 mg/kg i.p. 15 min prior to nicotine 0.1 mg/kg s.c.) | Activity counts in the drug-paired compartment on test day (Male ICR mice [2]; methoxsalen 15 mg/kg i.p. + nicotine 0.1 mg/kg s.c.) | Activity counts in the drug-paired compartment on test day (Male ICR mice [2]; methoxsalen 15 mg/kg i.p. + saline) | Activity counts in the drug-paired compartment on test day (Male ICR mice [2]; methoxsalen 30 mg/kg i.p. + nicotine 0.1 mg/kg s.c.) | Activity counts in the drug-paired compartment on test day (Male ICR mice [2]; methoxsalen 30 mg/kg i.p. + saline) | Activity counts in the drug-paired compartment on test day (Male ICR mice [2]; methoxsalen 45 mg/kg i.p. + nicotine 0.1 mg/kg s.c.) | Activity counts in the drug-paired compartment on test day (Male ICR mice [2]; methoxsalen 45 mg/kg i.p. + saline) | Effect on nicotine plasma levels ([3]; highest dose of methoxsalen (45 mg/kg i.p.) before nicotine 0.1 mg/kg s.c.) | Effect on nicotine plasma levels ([3]; methoxsalen 15, 30, 45 mg/kg i.p. 15 min before nicotine 0.1 mg/kg s.c., blood 20 min after nicotine, last conditioning day) | Somatic withdrawal signs (Male ICR mice [4]) | Number Crossovers (Mean ± SEM) in the plus-maze test (Male ICR mice [5]; Methoxsalen 15 mg/kg i.p. / Vehicle / Mecamylamine 2 mg/kg s.c., 5 min, n=5-7) | Average time spent in open arms (elevated plus maze) (Male ICR mice [5]; methoxsalen 15 mg/kg i.p. 15 min before nicotine 2 mg/kg s.c. three times daily for 4 days, mecamylamine 2 mg/kg s.c. on day 5) | Inhibition of human CYP2A6 (human CYP2A6) | Nicotine conditioned place preference (Male ICR mice [1]; nicotine 0.1 mg/kg s.c. alone (vehicle pretreatment), vs vehicle-treated group) | Time spent on the hot-plate in spontaneous withdrawal (Male ICR mice [6]) | Number of somatic signs in spontaneous withdrawal (Male ICR mice [7]) | Decrease in rate of nicotine clearance [8] [%]
1 | COc1c2occc2cc2ccc(=O)oc12 [Methoxsalen, 8-methoxypsoralen] | no longer significant | produced a significant CPP | 524 ± 69 | 561 ± 83 | 488 ± 111 | 470 ± 105 | 513 ± 103 | 503 ± 89 | doubled | significantly increased | significant somatic withdrawal signs | 6.0 ± 0.8 | further decrease | potent inhibitor |  |  |  | 
2 | CN1CCC[C@H]1c1cccnc1 [Nicotine, (−)-1-Methyl-2-(3-pyridyl) pyrrolidine (+)-bitartrate salt] |  |  |  |  |  |  |  |  |  |  |  |  |  |  | did not induce place preference | decreased | significantly increased | 90

Reference: article PMC4106981 (Neuropharmacology, 2014)
